Results taken from patent publication US10125095B2, “Abscisic acid derivative” (NATIONAL UNIVERSITY CORPORATION SHIZUOKA UNIVERSITY, priority 2014, dated 2018).

Assays:
HAB1 = target: T1, HAB1 (Arabidopsis thaliana, UniProt Q9CAJ0); experiment: Protein dephosphorylation enzyme activity test, no receptor; type: biochemical, thale cress; conditions: control = 100%
T1 construct: GST (N); made in house; host or cells: Escherichia coli BL21(DE3)pLysS
T1 sequence (Q9CAJ0 23-511): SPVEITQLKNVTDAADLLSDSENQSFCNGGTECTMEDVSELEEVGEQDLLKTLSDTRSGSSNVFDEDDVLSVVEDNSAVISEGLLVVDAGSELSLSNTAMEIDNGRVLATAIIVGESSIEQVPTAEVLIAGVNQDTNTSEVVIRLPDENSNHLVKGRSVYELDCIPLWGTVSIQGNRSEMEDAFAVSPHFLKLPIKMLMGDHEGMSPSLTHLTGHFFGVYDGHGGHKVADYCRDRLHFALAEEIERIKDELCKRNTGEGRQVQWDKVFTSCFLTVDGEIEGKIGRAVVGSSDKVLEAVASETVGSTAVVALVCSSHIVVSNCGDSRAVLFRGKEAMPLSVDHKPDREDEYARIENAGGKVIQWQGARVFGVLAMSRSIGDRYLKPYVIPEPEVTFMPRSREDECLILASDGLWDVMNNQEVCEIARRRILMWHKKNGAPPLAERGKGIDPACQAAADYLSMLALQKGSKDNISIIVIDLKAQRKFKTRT
Procedure: (§1) A plasmid (pGex-2T-GST-HAB1 or pET28-6×His-PYL) encoded with PYR/PYL/RCAR proteins (PYL, abscisic acid receptor) or protein dephosphorylation enzyme HAB1 of thale cress was transformed to Escherichia coli (HAB1:BL21(DE3)pLysS, PYL:BL21-codonplus(DE3)-RIPL). Isopropyl-β-thiogalactopyranoside was added to the culture broth, which had been subjected to pre-culture (30° C., 180 rpm, 15 hours) and main culture (30° C., 180 rpm, 4 hours), and the protein-expressed (16° C., 150 rpm, 18 hours) crude enzyme solution was purified using FPLC thereby preparing the recombined PYL (PYR1, PYL1-6, PYL8-10) and HAB1. β-Mercaptoethanol, a manganese chloride aqueous solution, HAB1, PYL, a solution of the sample in dimethylsulfoxide and ultrapure water were sequentially added to a 96-well plate, allowed to stand at 22° C. for 30 minutes. Subsequently p-nitrophenylphosphate, which is the artificial substrate of HAB1, was added thereto to start the reaction, and the plate was placed in a microplate reader (TECAN, Infinite™ N200 NanoQuant). The absorbance at 405 nm due to p-nitrophenol, which is the hydrolysate of p-nitrophenylphosphate, was measured 3 minutes later from the reaction initiation, and HAB1 activity was calculated by the following formula (2). Note that the fraction to which only dimethylsulfoxide was added was considered to be the control and the activity thereof was defined as 100%. […] HAB1 specific activity (%)=Absorbance when sample was added/Absorbance of control×100 (2)

[1] = test system: thale cress (Arabidopsis thaliana, Col-0) seedlings; experiment: Thale cress growth test; type: in vivo; conditions: sprayed once a day, three weeks' culture
Procedure: Seeds of thale cress (Arabidopsis thaliana, Col-0) were sequentially immersed for 1 minute respectively in 500 μL of an aqueous solution of 5% bleach+1% SDS, 500 μL of a 70% aqueous solution of ethanol and 500 μL of a 70% aqueous solution of ethanol, washed five times in 1 mL of sterilized water, and then suspended in a 0.1% aqueous solution of agar. 25 mL each of germination medium (containing ½ MS medium inorganic salts) sterilized in an autoclave was added to a sterilized plastic petri dish, in which 60 to 80 seeds suspended in the 0.1% aqueous solution of agar were planted and, in a dark place, the seeds were vernilized at 4° C. for 3 days. The seeds were cultured at 22° C. under continuous light for 10 days. 40 g […] of sterilized soil (organic culture soil:vermiculite=1:1) was added to a plastic pot (50 mm×50 mm×50 mm, 35 mm bottom surface×35 mm height). Six plastic pots thus provided were placed in a 3000 mL-tray, 300 mL (depth 10 mm) of an aqueous solution of 1000-fold diluted HYPONeX (tradename (registered trademark), product of HYPONeX JAPAN CORP., LTD.) was added thereto and five roots each of thale cress seedlings were transplanted from the plastic petri dish. The seedlings were cultured at 22° C. under conditions of 16 hour light period-8 hour dark period, and 1 mL of an aqueous solution (prepared so as the final concentration of the compound of Example 7 to be 50 μM) of 0.1% DMSO (containing the compound of Example 7)+0.1% Approach BI (tradename (registered trademark), product of Kao Corporation) was sprayed once a day. Further, 300 mL of an aqueous solution of 2000-fold diluted HYPONeX was added every week. The same treatment as above was carried out using the compound of Comparative Example 1. Note that the seedlings, to which 1 mL of an aqueous solution of 0.1% DMSO+0.1% Approach BI without containing the above compound was sprayed once a day, were used as controls. […]

PYL9 = target: T2, PYL9 (Arabidopsis thaliana, UniProt Q84MC7); experiment: Protein dephosphorylation enzyme activity test, PYL9; type: biochemical, thale cress; conditions: control = 100%
T2 construct: 6xHis (N); made in house; host or cells: Escherichia coli BL21-codonplus(DE3)-RIPL (PYL); BL21(DE3)pLysS (HAB1)
T2 sequence (Q84MC7 1-187): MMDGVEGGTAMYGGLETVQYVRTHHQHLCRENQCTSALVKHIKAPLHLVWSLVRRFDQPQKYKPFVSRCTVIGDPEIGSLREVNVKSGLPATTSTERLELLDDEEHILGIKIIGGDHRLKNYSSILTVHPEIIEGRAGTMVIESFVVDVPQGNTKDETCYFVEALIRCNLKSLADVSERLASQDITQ
Procedure: as §1

[2] = test system: lettuce (Lactuca saliva) seeds; experiment: Lettuce seed germination test; type: in vivo; conditions: co-applied with ABA
[3] = test system: bok choy (Brassica rapa var. chinensis) seeds; experiment: Bok choy seed germination test; type: in vivo; conditions: co-applied with ABA

HAB1 Specific activity (%) None (HAB1; ABA + compound) [%]	HAB1 Specific activity (%) PYL9 (PYL9; ABA + compound) [%]	Compound	HAB1 Specific activity (%) None (HAB1; sample alone) [%]	Growth of thale cress ([1]; only ABA, 5 μM)	HAB1 Specific activity (%) PYL9 (PYL9; sample alone) [%]	Recovery of seed germination rate decreased by ABA [2]	Recovery of seed germination rate decreased by ABA [3]	Growth suppression effect of ABA on thale cress ([1]; 50 μM compound co-applied with 5 μM ABA)
		CC1=CC(=O)CC(C)(C)[C@@]1(O)/C=C/C(C)=C\C(=O)O [ABA, abscisic acid]	97	the growth of thale cress was notably suppressed	31			
81	90	CC1=C[C@@H](OCC#Cc2ccccc2)CC(C)(C)[C@@]1(O)/C=C/C(C)=C\C(=O)O [Example 1, (2Z,4E)-5-((1S,4S)-1-hydroxy-2,6,6-trimethyl-4-((3-phenylprop-2-yn-1-yl)oxy)cyclohex-2-en-1-yl)-3-methylpenta-2,4-dienoic acid]	83.8		111	recovered the seed germination rates once decreased by ABA	recovered the seed germination rates once decreased by ABA	
		CC1=C[C@@H](OCC#Cc2ccc(C)cc2)CC(C)(C)[C@@]1(O)/C=C/C(C)=C\C(=O)O [Example 7]						the growth suppression effect by ABA was notably improved and the thale cress growth was recovered to the same extent as the controls
